{"source": "patent US7888000B2", "about": "“Method for identifying salt-sensitive persons” (Morehouse School of Medicine, priority 2002, dated 2011)", "key": {"[1]": {"settings": "rat, in vivo"}, "[2]": {"system": "Dahl salt-sensitive (S) rats", "settings": "exogenous 25-OHD; S rats fed a high salt diet; cited from earlier work"}}}
{"smiles": "C=C1CC[C@H](O)C/C1=C/C=C1\\CCC[C@]2(C)[C@@H]([C@H](C)CCCC(C)(C)O)CC[C@@H]12", "note": "[25-OHD, 25-hydroxycholecalciferol]", "values": [{"measurement": "increase of plasma 25-OHD", "setting": "[1]", "result": "successful in S rats fed low"}, {"measurement": "attenuation of the blood pressure increase", "setting": "[2]", "result": "will not attenuate the blood pressure increase"}]}
